Legend:
Type in all cases: functional
KM12 [1] = assay: Growth inhibition of human KM12 cells assessed as cell growth at 1 uM incubated for 48 hrs by sulforhodamine B assay relative to control; conditions: KM12, 48 h, read-out: Activity
RXF 393 = assay: Growth inhibition of human RXF393 cells assessed as cell growth at 100 uM incubated for 48 hrs by sulforhodamine B assay relative to control; conditions: RXF 393, 48 h, read-out: Activity
IGROV-1 = assay: Growth inhibition of human IGROV1 cells assessed as cell growth at 10 uM incubated for 48 hrs by sulforhodamine B assay relative to control; conditions: IGROV-1, 48 h, read-out: Activity
ACHN [2] = assay: Growth inhibition of human ACHN cells assessed as cell growth at 100 uM incubated for 48 hrs by sulforhodamine B assay relative to control; conditions: read-out: Activity
KM12 [3] = assay: Growth inhibition of human KM12 cells assessed as cell growth at 10 uM incubated for 48 hrs by sulforhodamine B assay relative to control; conditions: KM12, 48 h, read-out: Activity
SR = assay: Growth inhibition of human SR cells assessed as cell growth at 100 uM incubated for 48 hrs by sulforhodamine B assay relative to control; conditions: read-out: Activity
A498 [4] = assay: Growth inhibition of human A498 cells assessed as cell growth at 10 uM incubated for 48 hrs by sulforhodamine B assay relative to control; conditions: A498, 48 h, read-out: Activity
PC-3 = assay: Growth inhibition of human PC3 cells assessed as cell growth at 10 uM incubated for 48 hrs by sulforhodamine B assay relative to control; conditions: PC-3, 48 h, read-out: Activity
UACC-257 = assay: Growth inhibition of human UACC257 cells assessed as cell growth at 0.1 uM incubated for 48 hrs by sulforhodamine B assay relative to control; conditions: UACC-257, 48 h, read-out: Activity
NCI-H226 [5] = assay: Growth inhibition of human NCI-H226 cells assessed as cell growth at 10 uM incubated for 48 hrs by sulforhodamine B assay relative to control; conditions: NCI-H226, 48 h, read-out: Activity
SF-268 = assay: Growth inhibition of human SF268 cells assessed as cell growth at 1 uM incubated for 48 hrs by sulforhodamine B assay relative to control; conditions: SF-268, 48 h, read-out: Activity
NCI-H226 [6] = assay: Growth inhibition of human NCI-H226 cells assessed as cell growth at 0.01 uM incubated for 48 hrs by sulforhodamine B assay relative to control; conditions: NCI-H226, 48 h, read-out: Activity
NCI-H460 = assay: Growth inhibition of human NCI-H460 cells assessed as cell growth at 100 uM incubated for 48 hrs by sulforhodamine B assay relative to control; conditions: NCI-H460, 48 h, read-out: Activity
SK-MEL-5 [7] = assay: Growth inhibition of human SK-MEL-5 cells assessed as cell growth at 0.1 uM incubated for 48 hrs by sulforhodamine B assay relative to control; conditions: SK-MEL-5, 48 h, read-out: Activity
OVCAR-4 = assay: Growth inhibition of human OVCAR4 cells assessed as cell growth at 0.1 uM incubated for 48 hrs by sulforhodamine B assay relative to control; conditions: OVCAR-4, 48 h, read-out: Activity
SK-OV-3 = assay: Growth inhibition of human SKOV3 cells assessed as cell growth at 1 uM incubated for 48 hrs by sulforhodamine B assay relative to control; conditions: SK-OV-3, 48 h, read-out: Activity
Hs-578T [8] = assay: Growth inhibition of human Hs 578T cells assessed as cell growth at 100 uM incubated for 48 hrs by sulforhodamine B assay relative to control; conditions: read-out: Activity
U-251 = assay: Growth inhibition of human U251 cells assessed as cell growth at 100 uM incubated for 48 hrs by sulforhodamine B assay relative to control; conditions: U-251, 48 h, read-out: Activity
HCC 2998 = assay: Growth inhibition of human HCC2998 cells assessed as cell growth at 10 uM incubated for 48 hrs by sulforhodamine B assay relative to control; conditions: HCC 2998, 48 h, read-out: Activity
LOX IMVI = assay: Growth inhibition of human LOXIMVI cells assessed as cell growth at 10 uM incubated for 48 hrs by sulforhodamine B assay relative to control; conditions: read-out: Activity
NCI-H322M = assay: Growth inhibition of human NCI-H322M cells assessed as cell growth at 0.3 uM incubated for 48 hrs by sulforhodamine B assay relative to control; conditions: read-out: Activity
SK-MEL-28 = assay: Growth inhibition of human SK-MEL-28 cells assessed as cell growth at 0.3 uM incubated for 48 hrs by sulforhodamine B assay relative to control; conditions: SK-MEL-28, 48 h, read-out: Activity
Hs-578T [9] = assay: Growth inhibition of human Hs 578T cells assessed as cell growth at 3 uM incubated for 48 hrs by sulforhodamine B assay relative to control; conditions: read-out: Activity
SW-620 [10] = assay: Growth inhibition of human SW620 cells assessed as cell growth at 0.03 uM incubated for 48 hrs by sulforhodamine B assay relative to control; conditions: SW-620, 48 h, read-out: Activity
786-0 = assay: Growth inhibition of human 786-0 cells assessed as cell growth at 0.3 uM incubated for 48 hrs by sulforhodamine B assay relative to control; conditions: 786-0, 48 h, read-out: Activity
SW-620 [11] = assay: Growth inhibition of human SW620 cells assessed as cell growth at 0.003 uM incubated for 48 hrs by sulforhodamine B assay relative to control; conditions: SW-620, 48 h, read-out: Activity
HT-29 = assay: Growth inhibition of human HT-29 cells assessed as cell growth at 0.03 uM incubated for 48 hrs by sulforhodamine B assay relative to control; conditions: HT-29, 48 h, read-out: Activity
OVCAR-5 [12] = assay: Growth inhibition of human OVCAR5 cells assessed as cell growth at 0.3 uM incubated for 48 hrs by sulforhodamine B assay relative to control; conditions: OVCAR-5, 48 h, read-out: Activity
A498 [13] = assay: Growth inhibition of human A498 cells assessed as cell growth at 0.03 uM incubated for 48 hrs by sulforhodamine B assay relative to control; conditions: A498, 48 h, read-out: Activity
T47D [14] = assay: Growth inhibition of human T47D cells assessed as cell growth at 3 uM incubated for 48 hrs by sulforhodamine B assay relative to control; conditions: read-out: Activity
T47D [15] = assay: Growth inhibition of human T47D cells assessed as cell growth at 0.03 uM incubated for 48 hrs by sulforhodamine B assay relative to control; conditions: read-out: Activity
TK-10 = assay: Growth inhibition of human TK10 cells assessed as cell growth at 3 uM incubated for 48 hrs by sulforhodamine B assay relative to control; conditions: TK-10, 48 h, read-out: Activity
OVCAR-5 [16] = assay: Growth inhibition of human OVCAR5 cells assessed as cell growth at 0.003 uM incubated for 48 hrs by sulforhodamine B assay relative to control; conditions: OVCAR-5, 48 h, read-out: Activity
SK-MEL-5 [17] = assay: Growth inhibition of human SK-MEL-5 cells assessed as cell growth at 0.03 uM incubated for 48 hrs by sulforhodamine B assay relative to control; conditions: SK-MEL-5, 48 h, read-out: Activity
ACHN [18] = assay: Growth inhibition of human ACHN cells assessed as cell growth at 0.03 uM incubated for 48 hrs by sulforhodamine B assay relative to control; conditions: read-out: Activity

| Structure (SMILES) | growth at 1 µM (KM12 [1]) [%] | growth at 100 µM (RXF 393) [%] | growth at 10 µM (IGROV-1) [%] | growth at 100 µM (ACHN [2]) [%] | growth at 10 µM (KM12 [3]) [%] | growth at 100 µM (SR) [%] | growth at 10 µM (A498 [4]) [%] | growth at 10 µM (PC-3) [%] | growth at 0.1 µM (UACC-257) [%] | growth at 10 µM (NCI-H226 [5]) [%] | growth at 1 µM (SF-268) [%] | growth at 0.01 µM (NCI-H226 [6]) [%] | growth at 100 µM (NCI-H460) [%] | growth at 0.1 µM (SK-MEL-5 [7]) [%] | growth at 0.1 µM (OVCAR-4) [%] | growth at 1 µM (SK-OV-3) [%] | growth at 100 µM (Hs-578T [8]) [%] | growth at 100 µM (U-251) [%] | growth at 10 µM (HCC 2998) [%] | growth at 10 µM (LOX IMVI) [%] | also measured |
| --- | --- | --- | --- | --- | --- | --- | --- | --- | --- | --- | --- | --- | --- | --- | --- | --- | --- | --- | --- | --- | --- |
| COc1cc2cc(Oc3ccc(NC(=O)Nc4ccc(Cl)c(Cl)c4)cc3)c(C)nc2cc1OC | 93 | -65 | 30 | -61 | 8 | -48 | -8 | -28 | 92 | -7 | 110 | 104 | -76 | 100 | 87 | 112 | -45 | -100 | 34 | 20 |  |
| COc1cc2cc(Oc3ccc(NC(=O)Nc4ccc(Cl)c(C(F)(F)F)c4)cc3)c(C)nc2cc1OC |  |  |  |  |  |  |  |  |  |  |  |  |  |  |  |  |  |  |  |  | growth at 0.3 µM (NCI-H322M): 112%; growth at 0.3 µM (SK-MEL-28): 91%; growth at 3 µM (Hs-578T [9]): -15%; growth at 0.03 µM (SW-620 [10]): 100%; growth at 0.3 µM (786-0): 93%; growth at 0.003 µM (SW-620 [11]): 95%; growth at 0.03 µM (HT-29): 100%; growth at 0.3 µM (OVCAR-5 [12]): 113%; growth at 0.03 µM (A498 [13]): 68%; growth at 3 µM (T47D [14]): 19%; growth at 0.03 µM (T47D [15]): 94%; growth at 3 µM (TK-10): 18%; growth at 0.003 µM (OVCAR-5 [16]): 96%; growth at 0.03 µM (SK-MEL-5 [17]): 92%; growth at 0.03 µM (ACHN [18]): 97% |
| COc1cc2cc(Oc3ccc(NC(=O)Nc4cc(C(F)(F)F)cc(C(F)(F)F)c4)cc3)c(C)nc2cc1OC | 48 | -78 | -55 | -89 | -75 | -19 | -43 | -41 | 110 | -60 | 79 | 103 | -73 | 101 | 83 | 88 | -9 | -83 | -80 | -84 |  |
| Cc1nc2cc(O)c(O)cc2cc1Oc1ccc(NC(=O)Nc2ccc(Cl)c(Cl)c2)cc1 |  |  |  |  |  |  |  |  |  |  |  |  |  |  |  |  |  |  |  |  | growth at 0.3 µM (NCI-H322M): 110%; growth at 0.3 µM (SK-MEL-28): 87%; growth at 3 µM (Hs-578T [9]): 100%; growth at 0.03 µM (SW-620 [10]): 97%; growth at 0.3 µM (786-0): 95%; growth at 0.003 µM (SW-620 [11]): 100%; growth at 0.03 µM (HT-29): 103%; growth at 0.3 µM (OVCAR-5 [12]): 106%; growth at 0.03 µM (A498 [13]): 75%; growth at 3 µM (T47D [14]): 100%; growth at 0.03 µM (T47D [15]): 102%; growth at 3 µM (TK-10): 98%; growth at 0.003 µM (OVCAR-5 [16]): 102%; growth at 0.03 µM (SK-MEL-5 [17]): 101%; growth at 0.03 µM (ACHN [18]): 107% |

Source: ChEMBL document CHEMBL3994622, “Design and synthesis of new RAF kinase-inhibiting antiproliferative quinoline derivatives. Part 2: Diarylurea derivatives” (Eur J Med Chem, 2017)
